Measured values as given in ChEMBL document CHEMBL1201862, “PubChem BioAssay data set” (2004).
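Where inhibition never reached the appropriate level, the endpoint shown equals the highest concentration tested. Otherwise, values were interpolated linearly from a five-concentration, 48-hour dose response in 96-well plates. GI50 is the concentration that inhibits growth by half.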 Activity calls are given as the source filed them. Cut-off read from the data, not from the text of the source: active = GI50 up to about 1.1 µM and inactive = higher.

Assays:
Experiment in all cases: NCI anticancer screen, dose series, 48 h
786-0 = tested on: 786-0
A498 = tested on: A498
ACHN = tested on: ACHN
CAKI-1 = tested on: CAKI-1
CCRF-CEM = tested on: CCRF-CEM
COLO 205 = tested on: COLO 205
DLD-1 = tested on: DLD-1
DMS-273 = tested on: DMS-273
HCC 2998 = tested on: HCC 2998
HCT-116 = tested on: HCT-116
HCT-15 = tested on: HCT-15
HOP-18 = tested on: HOP-18
HOP-62 = tested on: HOP-62
HOP-92 = tested on: HOP-92
HT-29 = tested on: HT-29
IGROV-1 = tested on: IGROV-1
KM-20L2 = tested on: KM-20L2
LOX IMVI = tested on: LOX IMVI
LXFL 529 = tested on: LXFL 529
M14 = tested on: M14
M19-MEL = tested on: M19-MEL
MOLT-4 = tested on: MOLT-4
NCI-H226 = tested on: NCI-H226
NCI-H23 = tested on: NCI-H23
NCI-H460 = tested on: NCI-H460
NCI-H522 = tested on: NCI-H522
OVCAR-3 = tested on: OVCAR-3
OVCAR-4 = tested on: OVCAR-4
OVCAR-5 = tested on: OVCAR-5
OVCAR-8 = tested on: OVCAR-8
RPMI-8226 = tested on: RPMI-8226
RXF 393 = tested on: RXF 393
RXF 631 = tested on: RXF 631
SF-268 = tested on: SF-268
SF-295 = tested on: SF-295
SF-539 = tested on: SF-539
SK-MEL-28 = tested on: SK-MEL-28
SK-MEL-2 = tested on: SK-MEL-2
SK-MEL-5 = tested on: SK-MEL-5
SK-OV-3 = tested on: SK-OV-3
SN12C = tested on: SN12C
SNB-75 = tested on: SNB-75
SNB-78 = tested on: SNB-78
SR = tested on: SR
SW-620 = tested on: SW-620
TK-10 = tested on: TK-10
U-251 = tested on: U-251
UACC-257 = tested on: UACC-257
UACC-62 = tested on: UACC-62
UO-31 = tested on: UO-31
A549 = tested on: A549
DMS-114 = tested on: DMS-114
EKVX = tested on: EKVX
HL-60 = tested on: HL-60
K562 = tested on: K562
KM12 = tested on: KM12
Malme-3M = tested on: Malme-3M
SNB-19 = tested on: SNB-19
XF498 = tested on: XF498

In the case of `C[N+](C)(C)CC1CCCCC1O` (centres undefined), the GI50 (786-0) is reported as > 100 µM (inactive), the GI50 (A498) is reported as > 100 µM (inactive) and the GI50 (ACHN) is reported as > 100 µM (inactive). The GI50 (CAKI-1) was > 100 µM (inactive), the GI50 (CCRF-CEM) was > 100 µM (inactive) and the GI50 (COLO 205) was > 100 µM (inactive). The GI50 (DLD-1) was > 100 µM (inactive), the GI50 (DMS-273) was > 100 µM (inactive) and the GI50 (HCC 2998) was > 100 µM (inactive). For the same molecule, the GI50 (HCT-116) was > 100 µM (inactive), the GI50 (HCT-15) was greater than 100 µM and the GI50 (HOP-18) was 1.28 µM (inactive). For the same molecule, the GI50 (HOP-62) was > 100 µM (inactive), the GI50 (HOP-92) was > 100 µM (inactive) and the GI50 (HT-29) was > 100 µM (inactive). For the same molecule, the GI50 (IGROV-1) was > 100 µM (inactive), the GI50 (KM-20L2) was > 100 µM (inactive) and the GI50 (LOX IMVI) was > 100 µM (inactive). For the same molecule, the GI50 (LXFL 529) was > 100 µM (inactive), the GI50 (M14) was > 100 µM (inactive) and the GI50 (M19-MEL) was > 100 µM (inactive). The GI50 (MOLT-4) was > 100 µM (inactive), the GI50 (NCI-H226) was > 100 µM (inactive) and the GI50 (NCI-H23) was > 100 µM (inactive). The GI50 (NCI-H460) was > 100 µM (inactive), the GI50 (NCI-H522) was 63 µM (inactive) and the GI50 (OVCAR-3) was > 100 µM (inactive). The GI50 (OVCAR-4) was > 100 µM (inactive), the GI50 (OVCAR-5) was > 100 µM (inactive) and the GI50 (OVCAR-8) was > 100 µM (inactive). The GI50 (RPMI-8226) was > 100 µM (inactive), the GI50 (RXF 393) was > 100 µM (inactive) and the GI50 (RXF 631) was > 100 µM (inactive). For the same molecule, the GI50 (SF-268) was > 100 µM (inactive), the GI50 (SF-295) was > 100 µM (inactive) and the GI50 (SF-539) was > 100 µM (inactive). For the same molecule, the GI50 (SK-MEL-28) was > 100 µM (inactive), the GI50 (SK-MEL-2) was > 100 µM (inactive) and the GI50 (SK-MEL-5) was > 100 µM (inactive). The GI50 (SK-OV-3) was > 100 µM (inactive), the GI50 (SN12C) was > 100 µM (inactive) and the GI50 (SNB-75) was > 100 µM (inactive). For the same molecule, the GI50 (SNB-78) was > 100 µM (inactive), the GI50 (SR) was > 100 µM (inactive) and the GI50 (SW-620) was > 100 µM (inactive). For the same molecule, the GI50 (TK-10) was > 100 µM (inactive), the GI50 (U-251) was > 100 µM (inactive) and the GI50 (UACC-257) was > 100 µM (inactive). For the same molecule, the GI50 (UACC-62) was > 100 µM (inactive) and the GI50 (UO-31) was > 100 µM (inactive).

For `COc1cc(/C=C(\NC(=O)c2ccccc2)c2nc3c(O)nc(S)nc3[nH]2)cc(OC)c1OC`, the GI50 (786-0) was > 100 µM (inactive), the GI50 (A549) was > 100 µM (inactive) and the GI50 (ACHN) was > 100 µM (inactive). For the same molecule, the GI50 (CAKI-1) was > 100 µM (inactive), the GI50 (CCRF-CEM) was > 100 µM (inactive) and the GI50 (COLO 205) was > 100 µM (inactive). The GI50 (DLD-1) was > 100 µM (inactive), the GI50 (DMS-114) was > 100 µM (inactive) and the GI50 (EKVX) was > 100 µM (inactive). The GI50 (HCC 2998) was > 100 µM (inactive), the GI50 (HCT-15) was greater than 100 µM and the GI50 (HL-60) was > 100 µM (inactive). For the same molecule, the GI50 (HOP-92) was 59.3 µM (inactive), the GI50 (HT-29) was > 100 µM (inactive) and the GI50 (IGROV-1) was > 100 µM (inactive). For the same molecule, the GI50 (K562) was > 100 µM (inactive), the GI50 (KM-20L2) was > 100 µM (inactive) and the GI50 (KM12) was > 100 µM (inactive). For the same molecule, the GI50 (LXFL 529) was > 100 µM (inactive), the GI50 (M14) was > 100 µM (inactive) and the GI50 (M19-MEL) was > 100 µM (inactive). The GI50 (MOLT-4) was > 100 µM (inactive), the GI50 (Malme-3M) was > 100 µM (inactive) and the GI50 (NCI-H23) was > 100 µM (inactive). For the same molecule, the GI50 (NCI-H522) was > 100 µM (inactive), the GI50 (OVCAR-3) was > 100 µM (inactive) and the GI50 (OVCAR-4) was > 100 µM (inactive). The GI50 (OVCAR-5) was > 100 µM (inactive), the GI50 (OVCAR-8) was > 100 µM (inactive) and the GI50 (RXF 393) was > 100 µM (inactive). The GI50 (RXF 631) was > 100 µM (inactive), the GI50 (SF-268) was > 100 µM (inactive) and the GI50 (SF-295) was > 100 µM (inactive). The GI50 (SF-539) was > 100 µM (inactive), the GI50 (SK-MEL-28) was > 100 µM (inactive) and the GI50 (SK-MEL-2) was > 100 µM (inactive). The GI50 (SK-MEL-5) was > 100 µM (inactive), the GI50 (SK-OV-3) was > 100 µM (inactive) and the GI50 (SN12C) was > 100 µM (inactive). For the same molecule, the GI50 (SNB-19) was > 100 µM (inactive), the GI50 (SNB-78) was > 100 µM (inactive) and the GI50 (SR) was > 100 µM (inactive). For the same molecule, the GI50 (SW-620) was > 100 µM (inactive), the GI50 (TK-10) was > 100 µM (inactive) and the GI50 (U-251) was > 100 µM (inactive). The GI50 (UACC-62) was > 100 µM (inactive), the GI50 (UO-31) was > 100 µM (inactive) and the GI50 (XF498) was > 100 µM (inactive).

For `O/N=C1/C(=C/c2ccc(Oc3ccccc3)cc2)CCCC1C(NO)c1ccc(Oc2ccccc2)cc1` (centres undefined), the GI50 (786-0) was 28.6 µM (inactive), the GI50 (A549) was 13.8 µM (inactive) and the GI50 (ACHN) was 24 µM (inactive). For the same molecule, the GI50 (CAKI-1) was 33.2 µM (inactive), the GI50 (CCRF-CEM) was 12.2 µM (inactive) and the GI50 (COLO 205) was 19.3 µM (inactive). The GI50 (DLD-1) was 66.1 µM (inactive), the GI50 (DMS-114) was 26.4 µM (inactive) and the GI50 (DMS-273) was 28.6 µM (inactive). The GI50 (EKVX) was 81.3 µM (inactive), the GI50 (HCC 2998) was 32.5 µM (inactive) and the GI50 (HCT-116) was 11.5 µM (inactive). The GI50 (HCT-15) was 47 µM, the GI50 (HL-60) was 8.51 µM (inactive) and the GI50 (HOP-18) was > 100 µM (inactive). For the same molecule, the GI50 (HOP-62) was > 100 µM (inactive), the GI50 (HOP-92) was 17.9 µM (inactive) and the GI50 (HT-29) was 16.1 µM (inactive). For the same molecule, the GI50 (IGROV-1) was 29.1 µM (inactive), the GI50 (K562) was 19.8 µM (inactive) and the GI50 (KM-20L2) was 11.2 µM (inactive). The GI50 (KM12) was 22.3 µM (inactive), the GI50 (LOX IMVI) was 13.6 µM (inactive) and the GI50 (LXFL 529) was 33 µM (inactive). For the same molecule, the GI50 (M14) was 40.6 µM (inactive), the GI50 (M19-MEL) was 39.6 µM (inactive) and the GI50 (MOLT-4) was 4.43 µM (inactive). The GI50 (Malme-3M) was 44.1 µM (inactive), the GI50 (NCI-H226) was 25.1 µM (inactive) and the GI50 (NCI-H23) was 16.9 µM (inactive). The GI50 (NCI-H460) was 27.9 µM (inactive), the GI50 (OVCAR-3) was 32 µM (inactive) and the GI50 (OVCAR-4) was 29.7 µM (inactive). For the same molecule, the GI50 (OVCAR-5) was 63 µM (inactive), the GI50 (OVCAR-8) was 26.4 µM (inactive) and the GI50 (RPMI-8226) was 18.2 µM (inactive). The GI50 (RXF 393) was 14.5 µM (inactive), the GI50 (RXF 631) was 33.2 µM (inactive) and the GI50 (SF-268) was 37.2 µM (inactive). For the same molecule, the GI50 (SF-295) was 41.6 µM (inactive), the GI50 (SF-539) was 40 µM (inactive) and the GI50 (SK-MEL-28) was 61.2 µM (inactive). The GI50 (SK-MEL-2) was 45.6 µM (inactive), the GI50 (SK-MEL-5) was 13.4 µM (inactive) and the GI50 (SK-OV-3) was > 100 µM (inactive). The GI50 (SN12C) was 22.8 µM (inactive), the GI50 (SNB-19) was > 100 µM (inactive) and the GI50 (SNB-75) was 69.8 µM (inactive). For the same molecule, the GI50 (SNB-78) was 34.8 µM (inactive), the GI50 (SW-620) was 32.4 µM (inactive) and the GI50 (TK-10) was 10.3 µM (inactive). The GI50 (U-251) was 51.2 µM (inactive), the GI50 (UACC-257) was 50.1 µM (inactive) and the GI50 (UACC-62) was 43.9 µM (inactive). For the same molecule, the GI50 (UO-31) was 21 µM (inactive) and the GI50 (XF498) was 29.7 µM (inactive).
